Data taken from publication PMC11174489, “In Vitro Activation of Human Adrenergic Receptors and Trace Amine-Associated Receptor 1 by Phenethylamine Analogues Present in Food Supplements” (Nutrients, 2024).

What was measured:
Format in all cases: cell-based
[1] = molecular target: T1, human adrenergic receptor (ADR) α1A (Homo sapiens, UniProt P35348); assay: ADRα1A activation, Ca2+ influx (Fluo-8) in overexpressing chem-1 cells; details: Chem-1
T1 construct: host or cells: rat chem-1 cells
T1 sequence (P35348 1-466): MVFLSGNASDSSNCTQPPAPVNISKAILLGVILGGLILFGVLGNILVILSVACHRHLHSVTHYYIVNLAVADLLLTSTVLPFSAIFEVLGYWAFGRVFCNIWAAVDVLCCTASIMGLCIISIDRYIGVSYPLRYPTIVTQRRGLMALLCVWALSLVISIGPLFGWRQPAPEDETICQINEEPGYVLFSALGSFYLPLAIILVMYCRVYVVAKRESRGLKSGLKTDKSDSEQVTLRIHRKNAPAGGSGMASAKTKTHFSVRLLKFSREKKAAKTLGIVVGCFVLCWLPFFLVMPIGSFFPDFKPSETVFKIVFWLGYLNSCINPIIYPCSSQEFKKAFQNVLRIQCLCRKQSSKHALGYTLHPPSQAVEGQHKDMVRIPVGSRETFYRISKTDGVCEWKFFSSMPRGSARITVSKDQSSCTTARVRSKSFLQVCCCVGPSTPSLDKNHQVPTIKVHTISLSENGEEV

[2] = molecular target: T2, human adrenergic receptor (ADR) α1B (Homo sapiens, UniProt P35368); assay: ADRα1B activation, Ca2+ influx (Fluo-8) in overexpressing chem-1 cells
T2 construct: host or cells: rat chem-1 cells
T2 sequence (P35368 1-520): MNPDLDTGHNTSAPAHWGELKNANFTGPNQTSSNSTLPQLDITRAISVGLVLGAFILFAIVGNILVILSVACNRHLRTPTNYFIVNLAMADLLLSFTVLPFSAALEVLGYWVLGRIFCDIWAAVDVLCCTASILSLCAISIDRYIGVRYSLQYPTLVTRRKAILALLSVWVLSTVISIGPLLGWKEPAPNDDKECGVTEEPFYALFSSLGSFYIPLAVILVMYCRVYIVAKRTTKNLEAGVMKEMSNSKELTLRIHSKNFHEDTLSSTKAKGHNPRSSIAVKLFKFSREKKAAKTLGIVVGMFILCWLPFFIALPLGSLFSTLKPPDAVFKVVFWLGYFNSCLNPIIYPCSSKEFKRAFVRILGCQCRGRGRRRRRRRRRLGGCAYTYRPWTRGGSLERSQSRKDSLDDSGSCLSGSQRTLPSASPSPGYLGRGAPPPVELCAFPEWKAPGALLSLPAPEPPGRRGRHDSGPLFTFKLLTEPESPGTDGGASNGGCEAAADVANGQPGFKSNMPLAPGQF
Description: (§1) Cells overexpressing human ADRs α1A, α1B, α1D, α2A, α2B, β1 and β2 (Eurofins Discovery Services, St. Charles, MO, USA, product numbers: HTS087RTA, HTS158RTA, HTS216RTA, HTS096RTA, HTS157LRTA, HTS104RTA and HTS073RTA, respectively) were used to study the potency (EC50) and efficacy (Emax) of the selected compounds for these receptors by quantifying Ca^2+ influx upon receptor activation. ADRα1A, α1B, α1D, α2A, β1 and β2 were overexpressed in rat chem-1 cells. ADRα2B was overexpressed in HEK293 cells. The cells were seeded (10,000–50,000 cells/well) in a black 96-well plate (VWR International, Leuven, Belgium) and incubated at 37 °C and 5% CO2 for 24 h. After 24 h, the cells were washed with Hank’s balanced salt solution (HBSS) (Gibco, Paisley, UK) containing 0.35 g/L sodium bicarbonate and incubated with 5 µg/mL Fluo-8 AM in HBSS (pH 7.4) supplemented with 2.5 mM probenecid for 1 h. […] Peak tops of the obtained fluorescence response–time curves were corrected for baseline fluorescence and used to construct concentration–response relationships.
(§2) Concentration–response relationships for TAAR1 activation are presented as percentages of the maximal intracellular cAMP level induced by full the TAAR1 agonist phenethylamine and corrected for baseline cAMP accumulation. […] Experiments were run in duplicate in 7–9 independent experiments for ADR and were run in 3–5 independent experiments for TAAR1.

[3] = molecular target: T3, human adrenergic receptor (ADR) α1D (Homo sapiens, UniProt P25100); assay: ADRα1D activation, Ca2+ influx (Fluo-8) in overexpressing chem-1 cells
T3 construct: host or cells: rat chem-1 cells
T3 sequence (P25100 1-572): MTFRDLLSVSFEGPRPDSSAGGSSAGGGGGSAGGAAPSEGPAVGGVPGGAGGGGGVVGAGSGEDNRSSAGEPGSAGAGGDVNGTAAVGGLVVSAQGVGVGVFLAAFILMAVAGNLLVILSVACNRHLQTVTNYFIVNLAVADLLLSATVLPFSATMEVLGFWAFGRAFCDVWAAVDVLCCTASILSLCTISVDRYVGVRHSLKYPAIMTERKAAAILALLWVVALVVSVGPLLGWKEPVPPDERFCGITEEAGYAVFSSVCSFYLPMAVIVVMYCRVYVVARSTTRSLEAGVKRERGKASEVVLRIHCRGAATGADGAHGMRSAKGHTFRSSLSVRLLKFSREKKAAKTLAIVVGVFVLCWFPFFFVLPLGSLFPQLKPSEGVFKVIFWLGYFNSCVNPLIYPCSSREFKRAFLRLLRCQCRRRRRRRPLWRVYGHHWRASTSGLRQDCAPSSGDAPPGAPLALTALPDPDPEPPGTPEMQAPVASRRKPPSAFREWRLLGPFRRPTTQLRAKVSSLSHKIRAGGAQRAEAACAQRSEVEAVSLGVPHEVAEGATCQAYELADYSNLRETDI

[4] = molecular target: T4, human adrenergic receptor (ADR) α2A (Homo sapiens, UniProt P08913); assay: ADRα2A activation, Ca2+ influx (Fluo-8) in overexpressing chem-1 cells
T4 construct: host or cells: rat chem-1 cells
T4 sequence (P08913 1-465): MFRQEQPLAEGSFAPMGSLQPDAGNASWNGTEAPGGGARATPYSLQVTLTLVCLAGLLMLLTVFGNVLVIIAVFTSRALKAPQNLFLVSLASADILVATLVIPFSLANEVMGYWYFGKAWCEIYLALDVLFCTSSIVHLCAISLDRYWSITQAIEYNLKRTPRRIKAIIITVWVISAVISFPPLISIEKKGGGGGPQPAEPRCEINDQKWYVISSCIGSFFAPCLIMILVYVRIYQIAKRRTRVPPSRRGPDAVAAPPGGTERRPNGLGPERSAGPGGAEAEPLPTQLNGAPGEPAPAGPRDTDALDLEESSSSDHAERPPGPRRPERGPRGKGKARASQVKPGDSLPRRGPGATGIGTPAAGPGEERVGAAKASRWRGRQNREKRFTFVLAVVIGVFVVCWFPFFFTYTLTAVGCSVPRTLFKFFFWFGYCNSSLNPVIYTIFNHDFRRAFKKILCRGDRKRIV

[5] = molecular target: T5, human adrenergic receptor (ADR) β1 (Homo sapiens, UniProt P08588); assay: ADRβ1 activation, Ca2+ influx (Fluo-8) in overexpressing chem-1 cells; details: Chem-1, read-out: ADRβ1 Emax
T5 construct: host or cells: rat chem-1 cells
Description: as §1, §2

[6] = molecular target: T6, human adrenergic receptor (ADR) β2 (Homo sapiens, UniProt P07550); assay: ADRβ2 activation, Ca2+ influx (Fluo-8) in overexpressing chem-1 cells
T6 construct: host or cells: rat chem-1 cells

[7] = Ca2+ response, chem-1 cells, average (95% confidence interval), 7–9 experiments
[8] = % of maximal signal obtained by adrenaline, average (95% CI)

T5 sequence (P08588 whole entry): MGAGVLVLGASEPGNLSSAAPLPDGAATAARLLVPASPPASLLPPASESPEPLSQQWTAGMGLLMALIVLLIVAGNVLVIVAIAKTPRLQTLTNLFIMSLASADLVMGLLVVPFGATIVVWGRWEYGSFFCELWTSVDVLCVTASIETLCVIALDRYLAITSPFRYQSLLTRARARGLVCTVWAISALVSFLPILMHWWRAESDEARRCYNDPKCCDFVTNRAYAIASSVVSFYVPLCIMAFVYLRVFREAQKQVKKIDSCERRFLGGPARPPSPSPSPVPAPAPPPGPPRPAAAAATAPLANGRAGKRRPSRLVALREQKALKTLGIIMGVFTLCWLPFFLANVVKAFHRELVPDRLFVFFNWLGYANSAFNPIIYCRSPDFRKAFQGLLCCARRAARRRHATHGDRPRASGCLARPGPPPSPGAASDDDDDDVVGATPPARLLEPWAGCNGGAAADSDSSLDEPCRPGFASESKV

Row | Compound | Emax [1] [%] | Emax ([2]; Chem-1, read-out: ADRα1B Emax) [%] | EC50 [3, 7] [µM] | Emax ([3]; Chem-1) [%] | Emax ([4]; Chem-1, % of maximal signal obtained by adrenaline, average (95% CI)) [%] | Emax [5] [%] | Emax ([6]; Chem-1) [%] | ADRα1B Emax [2, 8] | EC50 ([2]; Ca2+ response, chem-1 cells, average (95% confidence interval), 7–9 experiments, read-out: ADRα1B EC50) [µM] | ADRα1D Emax [3, 8] | EC50 [4, 7] [µM] | ADRβ2 Emax [6, 8] | EC50 [6, 7] [µM]
1 | CNC[C@H](O)c1ccc(O)c(O)c1 [Adrenaline, adrenaline, reference compound] | 98 | 99 | 0.0017 | 99 | 105 | 99 | 104 |  |  |  |  |  | 
2 | Methyltyramine |  |  |  |  |  |  |  | - | > 300 | - | > 300 | - | > 300
